Test results as given in patent US20250340527A1, “RIPK2 AND NOD INHIBITORS” (Trustees of Tufts College, priority 2022, published 2025).
Where two headings read alike, the source gives them in different places.

Tests used:
[1] = Pharmacokinetic analysis in mice; assay type: in vivo, C57BL/6 mice
Excerpt: The pharmacokinetic properties of SS-1-64 are summarized in the following table along with a comparator RIPK2/NOD inhibitor CSLP37, N-(5-(2-Amino-5-(4-(piperazin-1-yl)phenyl)pyridin-3-yl)-3-fluoro-2-methoxyphenyl)propane-1-sulfonamide (U.S. Pat. No. 11,135,298 to Cuny et al.).

[2] = tested on: HEK-Blue cells expressing human NOD2; assay: NOD2 signaling assay #1 (HEK-Blue NFkB-SEAP reporter, L18-MDP stimulated); assay type: cell-based; conditions: 1 ng/ml L18-MDP, read-out: IC50 (nM) HEKBlue
Protocol: HEK-Blue cells expressing human NOD2 and NFkB-SAEP reporter (Invivogen) are seeded into 96 well clear plates at 7.5×10^3 cells per well in 100 μL of DMEM media supplemented with 10% FBS and 1% antibiotic-antimycotic mix. Cells are allowed to attach for 48 h in 5% CO2 tissue culture incubator at 37° C. On the morning of the experiment, media in the wells is replaced with 100 μL of HEK-Blue detection media (Invivogen). Cells are treated with the inhibitors, diluted in DMSO (0.5 μL per well) for 15 min in 5% CO2 tissue culture incubator at 37° C. After that, cells are stimulated by the addition of 1 ng/ml L18-MDP (Invivogen). Cells are incubated in 5% CO2 tissue culture incubator at 37° C. for 8 h and absorbance, corresponding to the SEAP in the media, is determined in Wallac3V plate reader (Perkin Elmer). Inhibition, %=(1−((sample signal-unstimulated and DMSO treated cells)/(L18-MDP stimulated and DMSO treated cells−unstimulated and DMSO treated cells)))*100. IC50 values are calculated based on a dose range of inhibitor concentrations using non-linear regression in GraphPad Prism software.

[3] = biological target: Recombinant RIPK2 protein (Homo sapiens, UniProt O43353); assay: RIPK2 enzyme assay (ADP-Glo); assay type: biochemical; conditions: NI: no inhibition observed
Protocol: Recombinant RIPK2 protein (20 ng per reaction) is diluted in the reaction buffer consisting of 40 mM Tris (pH 7.5); 20 mM MgCl2; 0.1 mg/ml BSA; 50 μM DTT. Diluted protein is added to low volume white 384 well plates (2 μL/well). Inhibitors are diluted in reaction buffer (final 25% DMSO), 1 μL is added to each well and incubated 5 min at room temperature. Reactions are initiated by the addition of 2 μL of 100 μM ATP and 1 mg/ml RS repeat peptide (SignalChem) in the reaction buffer. Plates are sealed with plastic coverslips and incubated at room temperature for 2 h. Reactions are stopped by the addition of 5 μL of ADP-Glo reagent (Promega) and ADP generation reaction is performed for 40 min at room temperature. Luminescence signal is generated by the addition of 10 μL of Kinase detection reagent (Promega) for 30 min at room temperature. Luminescence signals are determined using appropriate luminescence plate-reader (typical integration time 0.3-1 sec). To calculate percent inhibition, average background signal is subtracted from test well and maximal signal wells. Inhibition, %=(1−(test signal/maximal signal))*100. The percent inhibition at a specified concentration is determined or IC50 values are calculated based on a dose range of inhibitor concentrations using non-linear regression in GraphPad Prism software.

[4] = tested on: NOD2 cellular signaling in THP1 cells; assay: NOD2 signaling assay #2 (THP1 NFkB-SEAP reporter, L18-MDP stimulated); assay type: cell-based; conditions: Homo sapiens, THP-1, 10 ng/ml L18-MDP
Protocol: THP1 cells expressing NFkB-SAEP reporter (Invivogen) are seeded into 96 well clear plates at 5×10^4 cells per well in 100 μL of RPM11640 media supplemented with 10% FBS and 1% antibiotic-antimycotic mix. Cells are treated with the inhibitors, diluted in DMSO ([…] per well) for 15 min in 5% CO2 tissue culture incubator at 37° C. After that, cells are stimulated by the addition of 10 ng/ml L18-MDP (Invivogen). Cells are incubated in 5% CO2 tissue culture incubator at 37° C. for 8 h and absorbance, corresponding to the SEAP in the media, is determined in Wallac3V plate reader (Perkin Elmer). Inhibition, %=(1−((sample signal-unstimulated and DMSO treated cells)/(L18-MDP stimulated and DMSO treated cells−unstimulated and DMSO treated cells)))*100. IC50 values are calculated based on a dose range of inhibitor concentrations using non-linear regression in GraphPad Prism software.

[5] = female, C57BL/6, mouse, in vivo, ip, 10 mg/kg
[6] = single dose 10 mg/kg intraperitoneally, female C57BL/6 mice

Chain of Recombinant RIPK2 protein (O43353 whole entry, species assumed): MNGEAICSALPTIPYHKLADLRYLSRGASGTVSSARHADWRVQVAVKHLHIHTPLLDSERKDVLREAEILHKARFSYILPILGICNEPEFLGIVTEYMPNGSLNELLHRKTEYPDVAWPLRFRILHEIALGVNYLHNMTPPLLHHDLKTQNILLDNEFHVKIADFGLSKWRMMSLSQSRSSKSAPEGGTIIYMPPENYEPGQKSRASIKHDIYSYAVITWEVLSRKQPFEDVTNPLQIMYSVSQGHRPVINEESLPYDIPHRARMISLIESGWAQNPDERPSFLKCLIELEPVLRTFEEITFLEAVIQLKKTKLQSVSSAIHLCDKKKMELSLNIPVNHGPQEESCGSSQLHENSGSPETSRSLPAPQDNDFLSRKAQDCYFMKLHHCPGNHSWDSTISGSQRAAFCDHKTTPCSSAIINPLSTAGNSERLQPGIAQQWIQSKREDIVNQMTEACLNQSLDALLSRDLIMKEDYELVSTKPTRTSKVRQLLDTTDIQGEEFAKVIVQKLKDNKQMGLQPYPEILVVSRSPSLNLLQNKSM

Row | SMILES | IC50 [3] [nM] | IC50 [4] [nM] | IC50 [2] [nM] | further results
1 | CCCS(=O)(=O)Nc1cc(-c2cc(-c3ccc(N4CCNCC4)cc3)cnc2N)cc(F)c1OC [CSLP37, N-(5-(2-Amino-5-(4-(piperazin-1-yl)phenyl)pyridin-3-yl)-3-fluoro-2-methoxyphenyl)propane-1-sulfonamide, reference compound] |  |  |  | Cl (clearance) [1, 5]: 3.58 ± 0.9054 L/h/kg; Cmax [1, 5]: 0.55 ± 0.2 µM; Tmax [1, 5]: 1.2 ± 0.4472 h; V (volume of distribution) [1, 5]: 24.04 ± 6.15 L/kg; t1/2 (plasma elimination half-life) [1, 5]: 4.66 ± 0.24 h; AUC ([1]; mouse, in vivo, ip, 10 mg/kg): 2.92 µg·h/mL
2 | CCCS(=O)(=O)Nc1cc(-c2cc(Br)cnc2N)cc(F)c1OC [SS-1-5, N-(5-(2-amino-5-bromopyridin-3-yl)-3-fluoro-2-methoxyphenyl)propane-1-sulfonamide] |  |  | 57 | 
3 | CCCS(=O)(=O)Nc1cc(-c2cc(-c3ccc(N4CCNCC4)cc3)cnc2NC)cc(F)c1OC [SS-1-10, N-(3-fluoro-2-methoxy-5-(2-(methylamino)-5-(4-(piperazin-1-yl)phenyl)pyridin-3-yl)phenyl)propane-1-sulfonamide] |  |  | 16 | 
4 | CCCS(=O)(=O)Nc1cc(-c2cc(-c3ccc(N4CCN(C)CC4)cc3)cnc2N)cc(F)c1OC [SS-1-18, N-(5-(2-amino-5-(4-(4-methylpiperazin-1-yl)phenyl)pyridin-3-yl)-3-fluoro-2-methoxyphenyl)propane-1-sulfonamide] | 10 |  | 0.03 | 
5 | COc1c(F)cc(-c2cc(-c3ccc(N4CCNCC4)cc3)cnc2N)cc1NS(C)(=O)=O [SS-1-33, N-(5-(2-amino-5-(4-(piperazin-1-yl)phenyl)pyridin-3-yl)-3-fluoro-2-methoxyphenyl)methanesulfonamide] | 29 |  | 0.17 | 
6 | CCCS(=O)(=O)N(C)c1cc(-c2cc(-c3ccc(N4CCNCC4)cc3)cnc2N)cc(F)c1OC [SS-1-39, N-(5-(2-amino-5-(4-(piperazin-1-yl)phenyl)pyridin-3-yl)-3-fluoro-2-methoxyphenyl)-N-methylpropane-1-sulfonamide] | 137 |  | 1.2 | 
7 | COc1cc(-c2cc(-c3ccc(C4CCN(C)CC4)cc3)cnc2N)cc(NS(C)(=O)=O)c1OC [SS-1-64, N-(5-(2-amino-5-(4-(1-methylpiperidin-4-yl)phenyl)pyridin-3-yl)-2,3-dimethoxyphenyl)methanesulfonamide] |  | 0.014 |  | Cmax ([1]; mouse, in vivo, ip, single dose 10 mg/kg intraperitoneally, 6% Captisol in water, female C57BL/6 mice, read-out: maximum plasma concentration (Cmax)): 1.63 ± 1.2 µM; Tmax ([1]; mouse, in vivo, ip, single dose 10 mg/kg intraperitoneally, female C57BL/6 mice, read-out: Tmax): 1 h; half-life ([1]; mouse, in vivo, ip, single dose 10 mg/kg intraperitoneally, female C57BL/6 mice, read-out: t1/2 (plasma elimination half-life) (converted)): 7.88 ± 0.28 h; Cl (clearance) [1, 6]: 3.214 ± 0.341 L/h/kg; V (volume of distribution) [1, 6]: 36.45 ± 2.61 L/kg; Tmax ([1]; single dose 10 mg/kg intraperitoneally, female C57BL/6 mice, plasma): 1 ± 0 h
8 | CCCS(=O)(=O)Nc1cc(-c2cc(C#CCN3CCN(C)CC3)cnc2N)cc(F)c1OC [SS-1-66, N-(5-(2-amino-5-(3-(4-methylpiperazin-1-yl)prop-1-yn-1-yl)pyridin-3-yl)-3-fluoro-2-methoxyphenyl)propane-1-sulfonamide] |  | 20 |  | 

More lines, main results first:

Row | IC50 [3] [nM] | IC50 [4] [nM] | SMILES | IC50 [2] [nM] | further results
9 | 11 |  | CCCS(=O)(=O)Nc1cc(-c2cc(-c3ccc(C4CCNCC4)cc3)cnc2N)cc(F)c1OC [SS-1-14, N-(5-(2-amino-5-(4-(piperidin-4-yl)phenyl)pyridin-3-yl)-3-fluoro-2-methoxyphenyl)propane-1-sulfonamide] | 0.06 | 
10 | 31 |  | CCCS(=O)(=O)Nc1cc(-c2cc(-c3ccc(C4CCN(C)CC4)cc3)cnc2N)cc(F)c1OC [SS-1-38, N-(5-(2-amino-5-(4-(1-methylpiperidin-4-yl)phenyl)pyridin-3-yl)-3-fluoro-2-methoxyphenyl)propane-1-sulfonamide] | 0.07 | 
11 |  | 0.1 | COc1c(F)cc(-c2cc(-c3ccc(C4CCN(C)CC4)cc3)cnc2N)cc1NS(C)(=O)=O [SS-1-43, N-(5-(2-amino-5-(4-(1-methylpiperidin-4-yl)phenyl)pyridin-3-yl)-3-fluoro-2-methoxyphenyl)methanesulfonamide] |  | 
12 |  | 1.2 | COc1c(F)cc(-c2cc(-c3ccc(C4CCN(C)CC4)cc3)cnc2N)cc1N(C)S(C)(=O)=O [SS-1-50, N-(5-(2-amino-5-(4-(1-methylpiperidin-4-yl)phenyl)pyridin-3-yl)-3-fluoro-2-methoxyphenyl)-N-methylmethanesulfonamide] |  | 
13 |  | 0.1 | COc1cc(-c2cc(-c3ccc(C4CCN(C)CC4)cc3)cnc2N)cc(NC(C)=O)c1OC [SS-2-41, N-(5-(2-amino-5-(4-(1-methylpiperidin-4-yl)phenyl)pyridin-3-yl)-2,3-dimethoxyphenyl)acetamide] |  | 
